Active and inactive are the calls of the source. No cut-off for these calls is given here.
Tests used:
[1] = system: Respiratory syncytial virus; test: (§1) Antiviral activity against RSV A2 infected in human airway epithelium transwell culture assessed as decrease in viral RNA level by measuring log10 reduction in median viral load at 0.01 uM pretreated at apical side for 3 hrs followed by compound washout and subsequent viral infection at apical side for 3 hrs followed by removal of virus and recurrent addition of compound on day 0 at apical side measured on day 3 by RT-qPCR analysis; format: functional; settings: time 75 hrs
[2] = Cytotoxicity against MDCK cells by MTS assay; format: toxicity, cell-based, Canis lupus familiaris; settings: dog
[3] = Drug metabolism in Cynomolgous monkey assessed as half life of (2R,3S,4R,5S)-5-(4-aminopyrrolo[2,1-f][1,2,4]triazin-7-yl)-3,4-dihydroxy-2-(hydroxymethyl)tetrahydrofuran-2-carbonitrile metabolite at lung-deposited dose of 4 mg/kg, IT measured after 24 hrs by LC-MS/MS analysis; format: ADME, organism-based, Macaca fascicularis; settings: cynomolgus monkey, in vivo, other
[4] = system: Respiratory syncytial virus; test: as §1, with “on day 1 and 2 at basolateral” for “on day 0 at apical”, “2 at basolateral side measured” for “0 at apical side measured”; format: functional; settings: time 75 hrs
[5] = Drug concentration in lung of Cynomolgous monkey measured per gram of tissue at 5 mg/kg, iv measured after 24 hrs by LC-MS/MS analysis; format: ADME, organism-based, Macaca fascicularis; settings: cynomolgus monkey, in vivo
[6] = Cmax in African green monkey at lung-deposited dose of 5.9 mg/kg, IT measured after 24 hrs by LC-MS/MS analysis; format: ADME, organism-based; settings: chlorocebus aethiops, in vivo
[7] = Cytotoxicity against human RD cells by MTS assay; format: toxicity, cell-based
[8] = Cmax in Cynomolgous monkey at lung-deposited dose of 4 mg/kg, IT measured after 24 hrs by LC-MS/MS analysis; format: ADME, organism-based, Macaca fascicularis; settings: cynomolgus monkey, in vivo
[9] = Half life in Cynomolgous monkey at lung-deposited dose of 4 mg/kg, IT measured after 24 hrs by LC-MS/MS analysis; format: ADME, organism-based, Macaca fascicularis; settings: cynomolgus monkey, in vivo
[10] = system: Respiratory syncytial virus; test: Antiviral activity against RSV infected in African green monkey assessed as reduction in viral load in nasal swabs at lung-deposited dose of 1.6 to 7.6 mg/kg, IT qd for 6 days; format: functional, organism-based; settings: dose 1.6-7.6 mg/kg, time 6.0 day
[11] = system: Respiratory syncytial virus; test: as §1, with “load at 0.05 uM pretreated” for “load at 0.01 uM pretreated”, “on day 1 and 2 at basolateral” for “on day 0 at apical”, “2 at basolateral side measured” for “0 at apical side measured”; format: functional; settings: time 75 hrs
[12] = Distribution coefficient, log D of compound measured after 30 mins by HPLC/UV analysis; format: physicochemical; settings: octanol/water
[13] = system: Respiratory syncytial virus; test: Antiviral activity against RSV infected in African green monkey assessed as reduction in viral replication in BAL at lung-deposited dose of 1.6 to 7.6 mg/kg, IT qd for 6 days measured for 15 days by RT-qPCR analysis relative to control; format: functional; set-up: scale not given: the % may be the effect or the level left; settings: dose 1.6-7.6 mg/kg, time 15 day, at 1.6 to 7.6 mg/kg
[14] = system: Respiratory syncytial virus; test: Antiviral activity against RSV A2 infected in H1-HeLa cells assessed as inhibition of intracellular virus replication; format: functional, organism-based; settings: human respiratory syncytial virus
[15] = system: Respiratory syncytial virus; test: Antiviral activity against RSV infected in African green monkey assessed as reduction in viral RNA copies in BAL at lung-deposited dose of 1.6 to 7.6 mg/kg, IT qd for 6 days measured for 3 to 11 days by RT-qPCR analysis; format: functional, organism-based; settings: dose 1.6-7.6 mg/kg, time 11.0 day
SARS-CoV-2 = test: Anti-viral activity against SARS-CoV-2 infected in human A549 cells expressing hACE2 by firefly reporter assay; format: functional, organism-based; settings: Severe acute respiratory syndrome coronavirus 2, A549
[16] = AUC (0 to 24 hrs) in African green monkey at lung-deposited dose of 5.9 mg/kg, IT measured after 24 hrs by LC-MS/MS analysis; format: ADME, organism-based; settings: chlorocebus aethiops, in vivo
[17] = Drug concentration in lung of African green monkey at lung-deposited dose of 5.9 mg/kg, IT measured after 24 hrs by LC-MS/MS analysis; format: ADME, organism-based; settings: chlorocebus aethiops, in vivo, other
[18] = system: Respiratory syncytial virus; test: as §1, with “0.05” for “0.01”; format: functional; settings: time 75 hrs
[19] = system: Respiratory syncytial virus; test: Antiviral activity against RSV infected in African green monkey assessed as reduction in viral load in BAL at lung-deposited dose of 1.6 to 7.6 mg/kg, IT qd for 6 days measured on day 7 to 9 by RT-qPCR analysis; format: functional, organism-based; settings: dose 1.6-7.6 mg/kg, time 9.0 day
[20] = system: Respiratory syncytial virus; test: Antiviral activity against Fluc-fused RSV A2 infected in Normal human bronchial epithelial cells incubated for 3 days by ONE Glo luciferase assay; format: functional, organism-based; settings: A2, Epithelial cell, 72 h
[21] = Cytotoxicity against human MT4 cells incubated for 5 days by Cell Titer Glo assay; format: toxicity, cell-based; settings: time 5 day
Enterovirus A71 = test: Anti-viral activity against EV-71 (H) infected in human RD cells by MTS assay; format: functional, organism-based; settings: Enterovirus A
Human metapneumovirus = test: Anti-viral activity against hMPV CAN99-81 (A1 genotype) infected in rhesus monkey LLC-MK2 cells incubated for 90 mins; format: functional, organism-based; settings: LLC-MK2, 1.5 h
[22] = Cmax in Cynomolgous monkey at 5 mg/kg, iv measured after 30 mins by LC-MS/MS analysis; format: ADME, organism-based, Macaca fascicularis; settings: cynomolgus monkey, in vivo
[23] = system: Respiratory syncytial virus; test: Antiviral activity against RSV A2 infected in D-HBE-As cells assessed as inhibition of intracellular virus replication; format: functional, organism-based; settings: human respiratory syncytial virus
[24] = Prodrug conversion in human H1-HeLa cells assessed as ((2R,3S,4R,5S)-5-(4-aminopyrrolo[2,1-f][1,2,4]triazin-7-yl)-2-cyano-3,4-dihydroxytetrahydrofuran-2-yl)methyl tetrahydrogen triphosphate formation measured per million cells at 0.2 uM measured after 48 hrs by LC-MS/MS analysis; format: ADME, cell-based
[25] = Drug metabolism in Cynomolgous monkey assessed as AUC (0 to 24 hrs) of (2R,3S,4R,5S)-5-(4-aminopyrrolo[2,1-f][1,2,4]triazin-7-yl)-3,4-dihydroxy-2-(hydroxymethyl)tetrahydrofuran-2-carbonitrile metabolite at 5 mg/kg, iv measured after 30 mins by LC-MS/MS analysis; format: ADME, organism-based, Macaca fascicularis; settings: cynomolgus monkey, in vivo, 0.5 h
[26] = Drug concentration in lung of Cynomolgous monkey at lung-deposited dose of 4 mg/kg, IT measured after 24 hrs by LC-MS/MS analysis; format: ADME, organism-based, Macaca fascicularis; settings: cynomolgus monkey, in vivo, other
[27] = system: Respiratory syncytial virus; test: Antiviral activity against RSV A2 infected in D-HBE-COPD cells assessed as inhibition of intracellular virus replication; format: functional, organism-based; settings: human respiratory syncytial virus
[28] = Cytotoxicity against human Hep-2 cells incubated for 4 to 5 days by Cell Titer Glo assay; format: toxicity, cell-based; settings: time 4-5 day
[29] = Drug metabolism in African green monkey assessed as Cmax of (2R,3S,4R,5S)-5-(4-aminopyrrolo[2,1-f][1,2,4]triazin-7-yl)-3,4-dihydroxy-2-(hydroxymethyl)tetrahydrofuran-2-carbonitrile metabolite at lung-deposited dose of 5.9 mg/kg, IT measured after 24 hrs by LC-MS/MS analysis; format: ADME, organism-based; settings: chlorocebus aethiops, in vivo, other
[30] = Half life in African green monkey at lung-deposited dose of 5.9 mg/kg, IT measured after 24 hrs by LC-MS/MS analysis; format: ADME, organism-based; settings: chlorocebus aethiops, in vivo
Influenza A virus = test: Anti-viral activity against Influenza A (H1N1) infected in MDCK cells by MTS assay; format: functional, organism-based; settings: H

## COC(=O)[C@H](C)N[P@](=O)(OC[C@@]1(C#N)O[C@@H](c2ccc3c(N)ncnn23)[C@H](OC(=O)C(C)C)[C@@H]1OC(=O)C(C)C)Oc1ccccc1
[1]
  Activity: 0.2 log10/ml
[2]
  CC50: > 2000 nM
[3]
  t1/2: 38.8 h
[4]
  Activity: 0.2 log10/ml
[5]
  Drug uptake: 4.28 nmol/g
[6]
  Cmax: 610 nM
[7]
  CC50: > 2000 nM
[8]
  Cmax: 620 nM
[9]
  half-life: 13 h
[10]
  Activity: inactive
[11]
  Activity: 0.5 log10/ml
[12]
  logD at 0.5 h: 3
[13]
  Activity: >99.99%
[14]
  IC50: 84 nM
[15]
  Activity: Active
SARS-CoV-2
  EC50: 4750 nM
[16]
  AUC(0-t) at 24 h: 1.74 µM·h
[17]
  Drug uptake: 24.6 nmol
[18]
  Activity: 0.2 log10/ml
[19]
  Activity: inactive
[20]
  EC50: < 3 nM
[21]
  CC50 at 120 h: 3240 nM
Enterovirus A71
  EC50: 83 nM
Human metapneumovirus
  EC50: 210 nM
[22]
  Cmax: 1990 nM
[23]
  IC50: 97 nM
[24]
  amount per cells: 0.84 pmol/10^6 cells
[25]
  AUC: 6.03 µM·h
[26]
  Drug uptake: 20.5 nmol
[27]
  IC50: < 85 nM
[28]
  CC50: 22700 nM
[29]
  Cmax: 220 nM
[30]
  half-life: 7.01 h
Influenza A virus
  EC50: > 2000 nM
